In patent US20230027198A1 (The Rockefeller University, priority 2019, published 2023):

Target: T1, ENL YEATS domain (6×HIS ENL YEATS Domain) binding to H3K9cr peptide (Homo sapiens, UniProt Q03111)
T1 construct: aa1-150; EpiCypher, 15-0069; purchased EpiCypher 15-0069
T1 sequence (Q03111 1-150): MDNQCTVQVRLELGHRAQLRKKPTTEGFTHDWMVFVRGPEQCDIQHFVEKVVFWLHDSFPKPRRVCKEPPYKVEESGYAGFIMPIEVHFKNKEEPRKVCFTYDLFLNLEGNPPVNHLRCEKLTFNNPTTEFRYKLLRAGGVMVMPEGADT
Assay: TR-FRET ENL Screening Assay, FRET Assay Protocol 1
Conditions: H3K9cr peptide (aa1-20)
Protocol: Compounds of the invention were dissolved in DMSO at a concentration of 3 mM with subsequent dilutions in assay buffer (50 mM HEPES PH7.0, 150 mM NaCl, 0.05% BSA, 0.2% Pluronic F-127) such that the assay contained 1% DMSO. […] Low control (LC) wells received 5 uL of assay buffer instead of ENL protein. […] Compound concentration response curves were performed in duplicate over the concentration range of 0.15 nM-30 uM. The response at each compound concentration minus the LC value was converted to percent inhibition of the vehicle control group response (HC-LC). The relationship between the % inhibition and the compound concentration was analyzed using a four parameter logistic equation to estimate lower and upper asymptotes, the compound concentration producing 50% inhibition (IC50 value) and the slope at the mid-point location.

| IC50 | SMILES |
| --- | --- |
| 465 nM | Cc1noc2ccc(C(=O)Nc3cc4[nH]c(CN5CCC[C@@H]5C)cc4cn3)cc12 [Example 2, 3-methyl-N-(2-[[(2S)-2-methylpyrrolidin-1-yl]methyl]-1H-pyrrolo[3,2-c]pyridin-6-yl)-1,2-benzoxazole-5-carboxamide] |
| 884 nM | Cc1nc2cc(C(=O)Nc3cc4[nH]c(CN5CCC[C@@H]5C)cc4cn3)ccc2o1 [Example 3, 2-methyl-N-(2-[[(2S)-2-methylpyrrolidin-1-yl]methyl]-1H-pyrrolo[3,2-c]pyridin-6-yl)-1,3-benzoxazole-5-carboxamide] |
| 569 nM | Cc1nc2ccc(C(=O)Nc3cc4[nH]c(CN5CCC[C@@H]5C)cc4cn3)cc2o1 [Example 4] |
| 245 nM | Cc1c2ccc(C(=O)Nc3cc4[nH]c(CN5CCC[C@@H]5C)cc4cn3)cc2nn1C [Example 8] |
| 283 nM | COCC1CCN(Cc2cc3cnc(NC(=O)c4ccc5c(cnn5C)c4)cc3[nH]2)C1 (stereo not shown) [Example 9] |
| 1780 nM | CC(c1ccc(C(=O)Nc2cc3[nH]c(CN4CCC[C@@H]4C)cc3cn2)cc1)c1ccccn1 (stereo partly drawn) [Example 10, N-(2-[[(2S)-2-methylpyrrolidin-1-yl]methyl]-1H-pyrrolo[3,2-c]pyridin-6-yl)-4-[1-(pyridin-2-yl)ethyl]benzamide] |
| 1420 nM | Cc1cnc(-c2ccc(C(=O)Nc3cc4[nH]c(CN5CCC[C@@H]5C)cc4cn3)c(F)c2)nc1 [Example 14, 2-fluoro-4-(5-methylpyrimidin-2-yl)-N-(2-[[(2S)-2-methylpyrrolidin-1-yl]methyl]-1H-pyrrolo[3,2-c]pyridin-6-yl)benzamide] |
| 263 nM | C[C@H]1CCCN1Cc1cc2cnc(NC(=O)c3ccc4ncccc4c3)cc2[nH]1 [Example 15] |
| 1160 nM | C[C@H]1CCCN1Cc1cc2cnc(NC(=O)c3ccc4c(c3)OCC(=O)N4)cc2[nH]1 [Example 16, N-(2-[[(2S)-2-methylpyrrolidin-1-yl]methyl]-1H-pyrrolo[3,2-c]pyridin-6-yl)-3-oxo-2,4-dihydro-1,4-benzoxazine-7-carboxamide] |
| 441 nM | C[C@H]1CCCN1Cc1cc2cnc(NC(=O)c3ccc4c(c3)OCC(=O)N4C)cc2[nH]1 [Example 17, 4-methyl-N-(2-[[(2S)-2-methylpyrrolidin-1-yl]methyl]-1H-pyrrolo[3,2-c]pyridin-6-yl)-3-oxo-2H-1,4-benzoxazine-7-carboxamide] |
| 166 nM | C[C@H]1CCCN1Cc1cc2cnc(NC(=O)c3ccc(-c4cnn(CCO)c4)cc3)cc2[nH]1 [Example 20, 4-[1-(2-hydroxyethyl)pyrazol-4-yl]-N-(2-[[(2S)-2-methylpyrrolidin-1-yl]methyl]-1H-pyrrolo[3,2-c]pyridin-6-yl)benzamide] |
| 395 nM | C[C@H]1CCCN1Cc1cc2cnc(NC(=O)c3ccc4cc[nH]c(=O)c4c3)cc2[nH]1 [Example 25] |
| 435 nM | C[C@H]1CCCN1Cc1cc2cnc(NC(=O)c3ccc4c(c3)CNC(=O)C4)cc2[nH]1 [Example 26] |
| 258 nM | COCC#CCn1ncc2cc(C(=O)Nc3cc4[nH]c(CN5CCC[C@@H]5C)cc4cn3)ccc21 [Example 27, 1-(4-methoxybut-2-yn-1-yl)-N-(2-[[(2S)-2-methylpyrrolidin-1-yl]methyl]-1H-pyrrolo[3,2-c]pyridin-6-yl)indazole-5-carboxamide] |
| 527 nM | CC(c1ccncc1)c1ccc(C(=O)Nc2cc3[nH]c(CN4CCC[C@@H]4C)cc3cn2)cc1 (stereo partly drawn) [Example 29, N-(2-[[(2S)-2-methylpyrrolidin-1-yl]methyl]-1H-pyrrolo[3,2-c]pyridin-6-yl)-4-[1-(pyridin-4-yl)ethyl]benzamide] |
| 864 nM | C[C@H]1CCCN1Cc1cc2cnc(NC(=O)c3ccc(-c4ccnn4C)cc3F)cc2[nH]1 [Example 31] |
| 418 nM | C[C@H]1CCCN1Cc1cc2cnc(NC(=O)c3ccc(-c4cn(C)nn4)cc3F)cc2[nH]1 [Example 33] |
| 657 nM | Cc1ccc(-c2ccc(C(=O)Nc3cc4[nH]c(CN5CCC[C@@H]5C)cc4cn3)c(F)c2)nn1 [Example 35] |
| 669 nM | Cc1cnnc(-c2ccc(C(=O)Nc3cc4[nH]c(CN5CCC[C@@H]5C)cc4cn3)c(F)c2)c1 [Example 36] |

| IC50 | SMILES |
| --- | --- |
| 239 nM | C[C@H]1CCCN1Cc1cc2cnc(NC(=O)c3ccc4c(cnn4-c4ccncc4)c3)cc2[nH]1 [Example 37, N-(2-[[(2S)-2-methylpyrrolidin-1-yl]methyl]-1H-pyrrolo[3,2-c]pyridin-6-yl)-1-(pyridin-4-yl) indazole-5-carboxamide] |
| 489 nM | C[C@H]1CCCN1Cc1cc2cnc(NC(=O)c3ccc4nccnc4c3)cc2[nH]1 [Example 38] |
| 368 nM | C[C@H]1CCCN1Cc1cc2cnc(NC(=O)c3ccc4nnccc4c3)cc2[nH]1 [Example 39] |
| 2520 nM | C[C@H]1CCCN1Cc1cc2cnc(NC(=O)c3ccc4c(c3)CCCN4C)cc2[nH]1 [Example 40, 1-methyl-N-(2-[[(2S)-2-methylpyrrolidin-1-yl]methyl]-1H-pyrrolo[3,2-c]pyridin-6-yl)-3,4-dihydro-2H-quinoline-6-carboxamide] |
| 410 nM | C[C@H]1CCCN1Cc1cc2ncc(NC(=O)c3ccc(-c4cc[nH]n4)cc3F)cc2[nH]1 [Example 41] |
| 699 nM | C[C@H]1CCCN1Cc1cc2cnc(NC(=O)c3ccc(-c4cc[nH]n4)cc3F)cc2[nH]1 [Example 43, 2-fluoro-N-(2-[[(2S)-2-methylpyrrolidin-1-yl]methyl]-1H-pyrrolo[3,2-c]pyridin-6-yl)-4-(1H-pyrazol-3-yl)benzamide] |
| 760 nM | COc1cc(C(=O)Nc2cc3[nH]c(CN4CCC[C@@H]4C)cc3cn2)c(F)cc1-c1ccn[nH]1 [Example 44] |
| 2180 nM | C[C@@H]1CCN1Cc1cc2cnc(NC(=O)c3ccc4c(cnn4C)c3)cc2[nH]1 [Example 45, 1-methyl-N-(2-[[(2R)-2-methylazetidin-1-yl]methyl]-1H-pyrrolo[3,2-c]pyridin-6-yl)indazole-5-carboxamide] |
| 151 nM | C[C@H]1CCCN1Cc1cc2cnc(NC(=O)c3ccc(-c4cnn(C5CC5)c4)cc3)cc2[nH]1 [Example 49] |
| 417 nM | C[C@H]1CCCN1Cc1cc2cnc(NC(=O)c3ccc4onc(C5CC5)c4c3)cc2[nH]1 [Example 53, 3-cyclopropyl-N-(2-[[(2S)-2-methylpyrrolidin-1-yl]methyl]-1H-pyrrolo[3,2-c]pyridin-6-yl)-1,2-benzoxazole-5-carboxamide] |
| 212 nM | C[C@H]1CCCN1Cc1cc2cnc(NC(=O)c3ccc(-n4ccnc4)cc3)cc2[nH]1 [Example 54] |
| 295 nM | C[C@H]1CCCN1Cc1cc2cnc(NC(=O)c3ccc4nc(N)ccc4c3)cc2[nH]1 [Example 58] |
| 513 nM | C[C@H]1CCCN1Cc1cc2cnc(NC(=O)c3ccc4nc(N)ncc4c3)cc2[nH]1 [Example 59] |
| 325 nM | C[C@H]1CCCN1Cc1cc2cnc(NC(=O)c3ccc4c(=O)[nH]ccc4c3)cc2[nH]1 [Example 61] |
| 1960 nM | C[C@H]1CCCN1Cc1cc2cnc(NC(=O)c3nc4ccc(O)cc4[nH]3)cc2[nH]1 [Example 63] |
| 1350 nM | C[C@H]1CCCN1Cc1cc2cnc(NC(=O)c3nc4cc(N)ccc4[nH]3)cc2[nH]1 [Example 64] |
| 137 nM | C[C@H]1CCCN1Cc1cc2cnc(NC(=O)c3ccc4cnccc4c3)cc2[nH]1 [Example 65] |
| 622 nM | Cc1c[nH]c2cc(C(=O)Nc3cc4[nH]c(CN5CCC[C@@H]5C)cc4cn3)ccc12 [Example 68] |
